Test results from patent US20080153806A1, “Novel Diazabicyclic Aryl Derivatives And Their Medical Use” (priority 2004, published 2008).
pIC50: −log10 of the molar value. Where a name gives a salt, the structure may show the parent alone. Read-outs that look alike come from different tables or passages of the source.

Experiments:
[1] = biological target: T1, α7-subtype of nicotinic receptors (Rattus norvegicus, UniProt Q05941); assay: In vitro inhibition of 3H-α-bungarotoxine binding in rat brain; details: rat cerebral cortex homogenate, 2 hours at 37° C., read-out: IC50 (concentration of the test substance which inhibits the specific binding of 3H-α-bungarotoxine by 50%)
T1 construct: Cerebral cortices from male Wistar rats (150-250 g) are homogenised; from tissue; host or cells: rat cerebral cortex membrane homogenate (male Wistar rats)
T1 sequence (Q05941 23-502): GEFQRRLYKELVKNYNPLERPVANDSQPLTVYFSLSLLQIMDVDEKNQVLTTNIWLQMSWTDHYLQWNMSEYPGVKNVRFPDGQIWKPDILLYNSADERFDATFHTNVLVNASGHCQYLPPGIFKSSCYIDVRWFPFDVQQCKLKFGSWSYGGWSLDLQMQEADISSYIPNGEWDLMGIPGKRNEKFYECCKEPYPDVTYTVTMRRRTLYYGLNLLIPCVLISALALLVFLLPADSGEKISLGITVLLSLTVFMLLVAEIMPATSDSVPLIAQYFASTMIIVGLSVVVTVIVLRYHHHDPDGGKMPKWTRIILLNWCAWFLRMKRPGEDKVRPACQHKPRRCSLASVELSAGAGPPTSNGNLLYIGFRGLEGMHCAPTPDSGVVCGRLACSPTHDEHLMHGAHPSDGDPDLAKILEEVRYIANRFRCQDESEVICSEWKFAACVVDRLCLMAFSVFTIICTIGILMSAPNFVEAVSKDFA

Compound: CN1C2CCC1CN(c1ccc(-c3ccccc3)nn1)C2
- melting point: 151 °C

Compound: CN1C2CCC1CN(c1ccc(-c3ccc(F)cc3)nn1)C2
- melting point: 164 to 165 °C

Compound: CN1C2CCC1CN(c1ccc(-c3ccccc3)cn1)C2
- melting point: 110.5 °C

Compound: COc1ccccc1-c1ccc(N2CC3CCC(C2)N3C)nn1
- melting point: 170 to 172 °C

Compound: COc1cccc(-c2ccc(N3CC4CCC(C3)N4C)nn2)c1
- melting point: 92 to 97 °C

Compound: CN1C2CCC1CN(c1ccc(-c3cccc(Cl)c3)nn1)C2
- melting point: 159 °C

Compound: CN1C2CCC1CN(c1ccc(-c3ccc(Cl)cc3)nn1)C2
- melting point: 180 °C

Compound: CN1C2CCC1CN(c1ccc(-c3cccnc3)nn1)C2
- melting point: 131 to 133 °C

Compound: COc1ccc(-c2ccc(N3CC4CCC(C3)N4C)nn2)cc1
- melting point: 154 to 155 °C

Compound: CN1C2CCC1CN(c1nnc(-c3ccccc3)s1)C2 (as salt: fumaric acid salt)
- melting point: 192 to 200 °C

Compound: CN1C2CCC1CN(c1nnc(-c3ccccc3)o1)C2 (as salt: fumaric acid salt)
- melting point: 170 to 191 °C

Compound: CN1C2CCC1CN(c1cccc(-c3ccccc3)n1)C2 (as salt: fumaric acid salt)
- melting point: 159 to 160 °C

Compound: CN1C2CCC1CN(c1ccc(-c3ccccc3N)nn1)C2 (as salt: fumaric acid salt)
- melting point: 186 to 195 °C

Compound: CC(=O)Nc1ccccc1-c1ccc(N2CC3CCC(C2)N3C)nn1 (as salt: fumaric acid salt)
- melting point: 219 to 222 °C

Compound: CN1C2CCC1CN(c1ccc(-c3ccccc3Cl)nn1)C2 (as salt: fumaric acid salt)
- melting point: 192 to 200 °C

Compound: COc1ccc2cc(-c3ccc(N4CC5CCC(C4)N5C)nn3)ccc2c1 (as salt: fumaric acid salt)
- melting point: 242 °C

Compound: CN1C2CCC1CN(c1ccc(-c3cccs3)nn1)C2 [Compound E1, 8-Methyl-3-(6-thiophen-2-yl-pyridazin-3-yl)-3,8-diaza-bicyclo[3.2.1]octane]
- melting point: 156 °C
- pIC50 ([1]; 3H-α-bungarotoxine 2 nM): > 6.00

Compound: CN1C2CCC1CN(c1ccc(-c3ccsc3)nn1)C2 [Compound E2, 8-Methyl-3-(6-thiophen-3-yl-pyridazin-3-yl)-3,8-diaza-bicyclo[3.2.1]octane]
- melting point: 172 to 173 °C
- pIC50 ([1]; 3H-α-bungarotoxine 2 nM): > 6.00

Compound: CN1C2CCC1CN(c1ccc(-c3ccco3)nn1)C2 [Compound E3, 3-(6-Furan-2-yl-pyridazin-3-yl)-8-methyl-3,8-diaza-bicyclo[3.2.1]octane]
- melting point: 144 °C
- pIC50 ([1]; 3H-α-bungarotoxine 2 nM): > 6.00

Compound: CN1C2CCC1CN(c1ccc(-c3ccoc3)nn1)C2 [Compound E5, 3-(6-Furan-3-yl-pyridazin-3-yl)-8-methyl-3,8-diaza-bicyclo[3.2.1]octane]
- melting point: 152 °C
- pIC50 ([1]; 3H-α-bungarotoxine 2 nM): > 6.00

Compound: CN1C2CCC1CN(c1ccc(-c3cccc(N)c3)nn1)C2 [Compound E7, 3-[6-(8-Methyl-3,8-diaza-bicyclo[3.2.1]oct-3-yl)-pyridazin-3-yl]-phenylamine]
- melting point: 164 °C
- pIC50 ([1]; 3H-α-bungarotoxine 2 nM): > 6.00

Compound: CC(=O)Nc1cccc(-c2ccc(N3CC4CCC(C3)N4C)nn2)c1 [Compound E8, N-{3-[6-(8-Methyl-3,8-diaza-bicyclo[3.2.1]oct-3-yl)-pyridazin-3-yl]-phenyl}-acetamide]
- melting point: 74 °C
- pIC50 ([1]; […]): > 6.00

Compound: CN1C2CCC1CN(c1ccc(-c3ccccc3F)nn1)C2 [Compound E9, 3-[6-(2-Fluoro-phenyl)-pyridazin-3-yl]-8-methyl-3,8-diaza-bicyclo[3.2.1]octane]
- melting point: 152 °C
- pIC50 ([1]; […]): > 6.00

Compound: CN1C2CCC1CN(c1ccc(-c3cccc(F)c3)nn1)C2 [Compound E11, 3-[6-(3-Fluoro-phenyl)-pyridazin-3-yl]-8-methyl-3,8-diaza-bicyclo[3.2.1]octane]
- melting point: 149 to 150 °C
- pIC50 ([1]; 3H-α-bungarotoxine 2 nM): > 6.00
